# Measured values reported in patent US20230085307A1, “PYRIDAZINONE COMPOUND AND HERBICIDE” (NISSAN CHEMICAL CORPORATION, priority 2019, published 2023).
# Key:
# barnyard grass [1] = test: Test Example 3: herbicidal effect by foliage application, Wagner pot (Table 18, symbol H); type: in vivo, barnyard grass (Echinochloa crus-galli); conditions: 320 g/ha
# In short: (§1)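 Plants were sown in alluvial soil held under 0.1–0.5 cm standing water and grown 14 days in a greenhouse at 25–30 °C. An emulsifiable formulation, water-diluted to the set dose, was then sprayed onto the foliage, and effects were scored three weeks later using previously defined criteria.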
# persian speedwell [2] = test: Test Example 4: herbicidal effect by soil treatment (Table 19, symbol R); type: in vivo, Persian speedwell (Veronica persica); conditions: amount of applied herbicide 320 g/ha
# In short: (§2)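 In this soil treatment, the formulated compound reached the seeds only through the soil: seeds were buried about 1.5 cm deep in sterilized diluvial soil, then the diluted emulsion was sprayed over the surface. After three weeks at 25° C. to 30° C. in a greenhouse, effects were graded on criteria from an earlier test.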
# lambsquarters [3] = test: Test Example 4: herbicidal effect by soil treatment (Table 19, symbol O); type: in vivo, lambsquarters (Chenopodium album); conditions: amount of applied herbicide 320 g/ha
# In short: as §2
# oval-leafed pondweed = test: Test Example 2: herbicidal activity, application during weed generation under submerged conditions (Table 17, symbol C); type: in vivo, oval-leafed pondweed (Monochoria vaginalis); conditions: AAH 320 g/ha; application during weed generation, submerged conditions
# In short: (§3)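 Alluvial soil in Wagner pots was flooded to 4 cm depth and sown with the three weeds together; pots were kept in a greenhouse at 25° C. to 30° C. At the one to two leaf stage, an emulsion formulation diluted in water to a set rate went onto the water surface; scored three weeks later.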
# false cleavers [4] = test: Test Example 5: herbicidal effect by foliage application, plastic box (Table 20, symbol Q); type: in vivo, false cleavers (Galium spurium); conditions: foliage application, 320 g/ha
# In short: (§4)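 Plants were sown into sterilized diluvial soil under about 1.5 cm cover and kept in a greenhouse at 25° C. to 30° C. Fourteen days on, foliage received an even spray of the diluted emulsion. Herbicidal or crop effect was judged three weeks afterwards.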
# lambsquarters [5] = test: Test Example 5: herbicidal effect by foliage application, plastic box (Table 20, symbol O); type: in vivo, lambsquarters (Chenopodium album); conditions: foliage application, 320 g/ha
# In short: as §4
# wild oat [6] = test: Test Example 5: herbicidal effect by foliage application, plastic box (Table 20, symbol I); type: in vivo, wild oat (Avena fatua); conditions: foliage application, 320 g/ha
# In short: as §4
# false cleavers [7] = test: Test Example 4: herbicidal effect by soil treatment (Table 19, symbol Q); type: in vivo, false cleavers (Galium spurium); conditions: amount of applied herbicide 320 g/ha
# In short: as §2
# velvetleaf [8] = test: Test Example 4: herbicidal effect by soil treatment (Table 19, symbol M); type: in vivo, velvetleaf (Abutilon theophrasti); conditions: amount of applied herbicide 320 g/ha
# In short: as §2
# barnyard grass [9] = test: Test Example 4: herbicidal effect by soil treatment (Table 19, symbol H); type: in vivo, barnyard grass (Echinochloa crus-galli); conditions: amount of applied herbicide 320 g/ha
# In short: as §2
# green foxtail [10] = test: Test Example 4: herbicidal effect by soil treatment (Table 19, symbol G); type: in vivo, green foxtail (Setaria viridis); conditions: amount of applied herbicide 320 g/ha
# In short: as §2
# Italian ryegrass [11] = test: Test Example 5: herbicidal effect by foliage application, plastic box (Table 20, symbol K); type: in vivo, Italian ryegrass (Lolium multiflorum); conditions: foliage application, 320 g/ha
# In short: as §4
# Japanese bulrush = test: Test Example 2: herbicidal activity, application during weed generation under submerged conditions (Table 17, symbol B); type: in vivo, Japanese bulrush (Schoenoplectus juncoides); conditions: AAH 320 g/ha; application during weed generation, submerged conditions
# In short: as §3
# late watergrass = test: Test Example 2: herbicidal activity, application during weed generation under submerged conditions (Table 17, symbol A); type: in vivo, late watergrass (Echinochloa oryzicola); conditions: AAH 320 g/ha; application during weed generation, submerged conditions
# In short: as §3
# green foxtail [12] = test: Test Example 5: herbicidal effect by foliage application, plastic box (Table 20, symbol G); type: in vivo, green foxtail (Setaria viridis); conditions: foliage application, 320 g/ha
# In short: as §4
# velvetleaf [13] = test: Test Example 5: herbicidal effect by foliage application, plastic box (Table 20, symbol M); type: in vivo, velvetleaf (Abutilon theophrasti); conditions: foliage application, 320 g/ha
# In short: as §4
# southern crabgrass [14] = test: Test Example 5: herbicidal effect by foliage application, plastic box (Table 20, symbol F); type: in vivo, southern crabgrass (Digitaria ciliaris); conditions: foliage application, 320 g/ha
# In short: as §4
# rice flat sedge = test: Test Example 3: herbicidal effect by foliage application, Wagner pot (Table 18, symbol E); type: in vivo, rice flat sedge (Cyperus iria); conditions: 320 g/ha
# In short: as §1
# windgrass [15] = test: Test Example 5: herbicidal effect by foliage application, plastic box (Table 20, symbol L); type: in vivo, windgrass (Apera spica-venti); conditions: foliage application, 320 g/ha
# In short: as §4
# Italian ryegrass [16] = test: Test Example 4: herbicidal effect by soil treatment (Table 19, symbol K); type: in vivo, Italian ryegrass (Lolium multiflorum); conditions: amount of applied herbicide 320 g/ha
# In short: as §2
# persian speedwell [17] = test: Test Example 5: herbicidal effect by foliage application, plastic box (Table 20, symbol R); type: in vivo, Persian speedwell (Veronica persica); conditions: foliage application, 320 g/ha
# In short: as §4
# redroot pigweed [18] = test: Test Example 5: herbicidal effect by foliage application, plastic box (Table 20, symbol N); type: in vivo, redroot pigweed (Amaranthus retroflexus); conditions: foliage application, 320 g/ha
# In short: as §4
# blackgrass = test: Test Example 5: herbicidal effect by foliage application, plastic box (Table 20, symbol J); type: in vivo, blackgrass (Alopecurus myosuroides); conditions: foliage application, 320 g/ha
# In short: as §4
# Chinese sprangletop = test: Test Example 3: herbicidal effect by foliage application, Wagner pot (Table 18, symbol D); type: in vivo, chinese sprangletop (Leptochloa chinensis); conditions: 320 g/ha
# In short: as §1
# wild oat [19] = test: Test Example 4: herbicidal effect by soil treatment (Table 19, symbol I); type: in vivo, wild oat (Avena fatua); conditions: amount of applied herbicide 320 g/ha
# In short: as §2
# southern crabgrass [20] = test: Test Example 4: herbicidal effect by soil treatment (Table 19, symbol F); type: in vivo, southern crabgrass (Digitaria ciliaris); conditions: amount of applied herbicide 320 g/ha
# In short: as §2
# redroot pigweed [21] = test: Test Example 4: herbicidal effect by soil treatment (Table 19, symbol N); type: in vivo, redroot pigweed (Amaranthus retroflexus); conditions: amount of applied herbicide 320 g/ha
# In short: as §2
# chickweed [22] = test: Test Example 4: herbicidal effect by soil treatment (Table 19, symbol P); type: in vivo, common chickweed (Stellaria media); conditions: amount of applied herbicide 320 g/ha
# In short: as §2
# chickweed [23] = test: Test Example 5: herbicidal effect by foliage application, plastic box (Table 20, symbol P); type: in vivo, common chickweed (Stellaria media); conditions: foliage application, 320 g/ha
# In short: as §4
# barnyard grass [24] = test: Test Example 5: herbicidal effect by foliage application, plastic box (Table 20, symbol H); type: in vivo, barnyard grass (Echinochloa crus-galli); conditions: foliage application, 320 g/ha
# In short: as §4
# windgrass [25] = test: Test Example 4: herbicidal effect by soil treatment (Table 19, symbol L); type: in vivo, windgrass (Apera spica-venti); conditions: amount of applied herbicide 320 g/ha
# In short: as §2
# [26] = evaluated three weeks after application
smiles,measurement,setting,value
Cc1nn(C)c(=O)c(-c2c(-c3ccc4c(c3)OCC4)sc3ccccc23)c1O [1-085],"herbicidal effect on H (barnyard grass), rating 0-5",barnyard grass [1],5 (Herbicidal rate of 90% or more (almost completely withered))
same,"herbicidal effect rating, R: persian speedwell",persian speedwell [2],4 (Herbicidal rate of 70% or more and less than 90%)
same,"herbicidal effect rating, O: lambsquarters",lambsquarters [3],5 (Herbicidal rate of 90% or more (almost completely withered))
same,"herbicidal effect rating, C: oval-leafed pondweed",oval-leafed pondweed,2 (Herbicidal rate of 20% or more and less than 40%)
same,"herbicidal effect grade, Q: false cleavers",false cleavers [4]; three weeks after application,5 (Herbicidal rate of 90% or more (almost completely withered))
same,"herbicidal effect grade, O: lambsquarters",lambsquarters [5]; three weeks after application,5 (Herbicidal rate of 90% or more (almost completely withered))
same,"herbicidal effect grade, I: wild oat",wild oat [6]; three weeks after application,4 (Herbicidal rate of 70% or more and less than 90%)
same,"herbicidal effect rating, Q: false cleavers",false cleavers [7],4 (Herbicidal rate of 70% or more and less than 90%)
same,"herbicidal effect rating, M: velvetleaf",velvetleaf [8],3 (Herbicidal rate of 40% or more and less than 70%)
same,"herbicidal effect rating, H: barnyard grass",barnyard grass [9],4 (Herbicidal rate of 70% or more and less than 90%)
same,"herbicidal effect rating, G: green foxtail",green foxtail [10],4 (Herbicidal rate of 70% or more and less than 90%)
same,"herbicidal effect grade, K: Italian ryegrass",Italian ryegrass [11]; three weeks after application,5 (Herbicidal rate of 90% or more (almost completely withered))
same,"herbicidal effect rating, B: Japanese bulrush",Japanese bulrush,1 (Herbicidal rate of 5% or more and less than 20%)
same,"herbicidal effect rating, A: late watergrass",late watergrass,1 (Herbicidal rate of 5% or more and less than 20%)
same,"herbicidal effect grade, G: green foxtail",green foxtail [12]; three weeks after application,5 (Herbicidal rate of 90% or more (almost completely withered))
same,"herbicidal effect grade, M: velvetleaf",velvetleaf [13]; three weeks after application,5 (Herbicidal rate of 90% or more (almost completely withered))
same,"herbicidal effect grade, F: southern crabgrass",southern crabgrass [14]; three weeks after application,5 (Herbicidal rate of 90% or more (almost completely withered))
same,"herbicidal effect on E (rice flat sedge), rating 0-5",rice flat sedge,5 (Herbicidal rate of 90% or more (almost completely withered))
same,"herbicidal effect grade, L: windgrass",windgrass [15]; three weeks after application,5 (Herbicidal rate of 90% or more (almost completely withered))
same,"herbicidal effect rating, K: Italian ryegrass",Italian ryegrass [16],5 (Herbicidal rate of 90% or more (almost completely withered))
same,"herbicidal effect grade, R: persian speedwell",persian speedwell [17]; three weeks after application,5 (Herbicidal rate of 90% or more (almost completely withered))
same,"herbicidal effect grade, N: redroot pigweed",redroot pigweed [18]; three weeks after application,5 (Herbicidal rate of 90% or more (almost completely withered))
same,"herbicidal effect grade, J: blackgrass",blackgrass; three weeks after application,4 (Herbicidal rate of 70% or more and less than 90%)
same,"herbicidal effect on D (Chinese sprangletop), rating 0-5",Chinese sprangletop,4 (Herbicidal rate of 70% or more and less than 90%)
same,"herbicidal effect rating, I: wild oat",wild oat [19],0 (Herbicidal rate of 5% or less (almost no effect))
same,"herbicidal effect rating, F: southern crabgrass",southern crabgrass [20],5 (Herbicidal rate of 90% or more (almost completely withered))
same,"herbicidal effect rating, N: redroot pigweed",redroot pigweed [21],5 (Herbicidal rate of 90% or more (almost completely withered))
same,"herbicidal effect rating, P: chickweed",chickweed [22],4 (Herbicidal rate of 70% or more and less than 90%)
same,"herbicidal effect grade, P: chickweed",chickweed [23]; three weeks after application,5 (Herbicidal rate of 90% or more (almost completely withered))
same,"herbicidal effect grade, H: barnyard grass",barnyard grass [24]; three weeks after application,5 (Herbicidal rate of 90% or more (almost completely withered))
CCCC(=O)Oc1c(C)nn(C)c(=O)c1-c1c(-c2ccc3c(c2)OCO3)sc2ccc(Cl)cc12 [2-126],"R: persian speedwell, herbicidal effect rating",persian speedwell [2],4 (Herbicidal rate of 70% or more and less than 90%)
same,"O: lambsquarters, herbicidal effect rating",lambsquarters [3],2 (Herbicidal rate of 20% or more and less than 40%)
same,"herbicidal effect rating, C: oval-leafed pondweed",oval-leafed pondweed,2 (Herbicidal rate of 20% or more and less than 40%)
same,herbicidal effect on Q: false cleavers,false cleavers [4]; [26],2 (Herbicidal rate of 20% or more and less than 40%)
same,herbicidal effect on O: lambsquarters,lambsquarters [5]; [26],3 (Herbicidal rate of 40% or more and less than 70%)
same,herbicidal effect on I: wild oat,wild oat [6]; [26],0 (Herbicidal rate of 5% or less (almost no effect))
same,"Q: false cleavers, herbicidal effect rating",false cleavers [7],0 (Herbicidal rate of 5% or less (almost no effect))
same,"M: velvetleaf, herbicidal effect rating",velvetleaf [8],0 (Herbicidal rate of 5% or less (almost no effect))
same,"H: barnyard grass, herbicidal effect rating",barnyard grass [9],0 (Herbicidal rate of 5% or less (almost no effect))
same,"G: green foxtail, herbicidal effect rating",green foxtail [10],0 (Herbicidal rate of 5% or less (almost no effect))
same,herbicidal effect on K: Italian ryegrass,Italian ryegrass [11]; [26],0 (Herbicidal rate of 5% or less (almost no effect))
same,"herbicidal effect rating, B: Japanese bulrush",Japanese bulrush,0 (Herbicidal rate of 5% or less (almost no effect))
same,"herbicidal effect rating, A: late watergrass",late watergrass,0 (Herbicidal rate of 5% or less (almost no effect))
same,herbicidal effect on G: green foxtail,green foxtail [12]; [26],0 (Herbicidal rate of 5% or less (almost no effect))
same,herbicidal effect on M: velvetleaf,velvetleaf [13]; [26],3 (Herbicidal rate of 40% or more and less than 70%)
same,"L: windgrass, herbicidal effect rating",windgrass [25],0 (Herbicidal rate of 5% or less (almost no effect))
same,herbicidal effect on F: southern crabgrass,southern crabgrass [14]; [26],0 (Herbicidal rate of 5% or less (almost no effect))
same,herbicidal effect on L: windgrass,windgrass [15]; [26],0 (Herbicidal rate of 5% or less (almost no effect))
same,"K: Italian ryegrass, herbicidal effect rating",Italian ryegrass [16],0 (Herbicidal rate of 5% or less (almost no effect))
same,herbicidal effect on R: persian speedwell,persian speedwell [17]; [26],5 (Herbicidal rate of 90% or more (almost completely withered))
same,herbicidal effect on N: redroot pigweed,redroot pigweed [18]; [26],1 (Herbicidal rate of 5% or more and less than 20%)
same,herbicidal effect on J: blackgrass,blackgrass; [26],0 (Herbicidal rate of 5% or less (almost no effect))
same,"I: wild oat, herbicidal effect rating",wild oat [19],0 (Herbicidal rate of 5% or less (almost no effect))
same,"F: southern crabgrass, herbicidal effect rating",southern crabgrass [20],0 (Herbicidal rate of 5% or less (almost no effect))
same,"N: redroot pigweed, herbicidal effect rating",redroot pigweed [21],0 (Herbicidal rate of 5% or less (almost no effect))
same,"P: chickweed, herbicidal effect rating",chickweed [22],3 (Herbicidal rate of 40% or more and less than 70%)
same,herbicidal effect on P: chickweed,chickweed [23]; [26],2 (Herbicidal rate of 20% or more and less than 40%)
same,herbicidal effect on H: barnyard grass,barnyard grass [24]; [26],0 (Herbicidal rate of 5% or less (almost no effect))
